pIC50: −log10 of the molar value.
Legend:
human SGLT1 = molecular target: T1, human SGLT1 (Homo sapiens, UniProt P13866); test: Inhibition of methyl-α-D-glucopyranoside uptake in COS-7 cells expressing human SGLT1; format: cell-based; settings: 14C α-MG uptake, 1 mM α-MG, transfected COS-7 cells, 1 hour at 37° C.; read-out: hSGLT1 IC50
T1 construct: expressed in transfected cells; host or cells: COS-7 cells, transient lipofection of pcDNA3.1(-) vector
T1 sequence (P13866 1-664): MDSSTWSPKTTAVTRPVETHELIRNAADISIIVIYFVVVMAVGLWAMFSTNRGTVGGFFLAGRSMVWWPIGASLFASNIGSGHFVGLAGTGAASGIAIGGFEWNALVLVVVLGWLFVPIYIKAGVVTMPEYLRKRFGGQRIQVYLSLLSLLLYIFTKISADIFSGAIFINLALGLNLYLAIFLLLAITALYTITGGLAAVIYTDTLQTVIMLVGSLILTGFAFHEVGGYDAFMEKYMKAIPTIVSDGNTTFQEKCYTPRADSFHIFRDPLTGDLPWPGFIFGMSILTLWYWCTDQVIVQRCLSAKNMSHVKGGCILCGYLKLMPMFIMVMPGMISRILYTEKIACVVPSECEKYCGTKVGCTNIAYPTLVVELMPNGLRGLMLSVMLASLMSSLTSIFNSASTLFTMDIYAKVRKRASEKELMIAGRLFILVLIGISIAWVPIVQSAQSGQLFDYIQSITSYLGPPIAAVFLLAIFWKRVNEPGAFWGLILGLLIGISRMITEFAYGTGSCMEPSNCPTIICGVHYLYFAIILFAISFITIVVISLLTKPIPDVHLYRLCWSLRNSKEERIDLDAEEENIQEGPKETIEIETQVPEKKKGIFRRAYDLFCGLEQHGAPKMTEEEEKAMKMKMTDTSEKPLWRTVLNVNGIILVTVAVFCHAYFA
Method: (§1) Assay for Inhibitory Effects on Human SGLT Activity
1) Cloning and Construction of the Vector Expressing Human SGLT1
(§2) The cDNA library was prepared for PCR amplification by reverse transcription from total RNA derived from human small intestine (Ori gene) using oligo-dT as a primer. Using this cDNA library as a template, the DNA fragment coding 1 to 2005 bp of human SGLT1 (ACCESSION: M24847), which was reported by Hediger et al., was amplified by PCR method and inserted into the multi-cloning site of pcDNA3.1(−) (Invitrogen). The DNA sequence inserted was perfectly matched to the previously reported sequence.
(§3) 3) Preparation of the Cells Expressing Human SGLT1 or SGLT2 […]
(§4) A mixture of non-labeled (Sigma) and ^14C-labeled α-MG (Amersham Pharmacia Biotech) was added to the uptake buffer (pH 7.4; containing 140 mM sodium chloride, 2 mM potassium chloride, 1 mM calcium chloride, 1 mM magnesium chloride, 10 mM 2-[4-(2-hydroxyethyl)-1-piperazinyl]ethane sulfonic acid and 5 mM tris(hydroxymethyl)aminomethane) at the final concentration of 1 mM. […] Radioactivity was measured by means of micro-scintillation counter TopCount (Packard). One hundred % was set to the difference between the uptake in the control group and the basal uptake, and the uptake of methyl α-D-glucopyranoside at each drug concentration was calculated. […]

human SGLT2 = molecular target: T2, human SGLT2 (Homo sapiens, UniProt P31639); test: Inhibition of methyl-α-D-glucopyranoside uptake in COS-7 cells expressing human SGLT2; format: cell-based; settings: 14C α-MG uptake, 1 mM α-MG, transfected COS-7 cells, 1 hour at 37° C.; read-out: hSGLT2 IC50
T2 construct: expressed in transfected cells; host or cells: COS-7 cells, transient lipofection of pcDNA3.1(-) vector
T2 sequence (P31639 1-672): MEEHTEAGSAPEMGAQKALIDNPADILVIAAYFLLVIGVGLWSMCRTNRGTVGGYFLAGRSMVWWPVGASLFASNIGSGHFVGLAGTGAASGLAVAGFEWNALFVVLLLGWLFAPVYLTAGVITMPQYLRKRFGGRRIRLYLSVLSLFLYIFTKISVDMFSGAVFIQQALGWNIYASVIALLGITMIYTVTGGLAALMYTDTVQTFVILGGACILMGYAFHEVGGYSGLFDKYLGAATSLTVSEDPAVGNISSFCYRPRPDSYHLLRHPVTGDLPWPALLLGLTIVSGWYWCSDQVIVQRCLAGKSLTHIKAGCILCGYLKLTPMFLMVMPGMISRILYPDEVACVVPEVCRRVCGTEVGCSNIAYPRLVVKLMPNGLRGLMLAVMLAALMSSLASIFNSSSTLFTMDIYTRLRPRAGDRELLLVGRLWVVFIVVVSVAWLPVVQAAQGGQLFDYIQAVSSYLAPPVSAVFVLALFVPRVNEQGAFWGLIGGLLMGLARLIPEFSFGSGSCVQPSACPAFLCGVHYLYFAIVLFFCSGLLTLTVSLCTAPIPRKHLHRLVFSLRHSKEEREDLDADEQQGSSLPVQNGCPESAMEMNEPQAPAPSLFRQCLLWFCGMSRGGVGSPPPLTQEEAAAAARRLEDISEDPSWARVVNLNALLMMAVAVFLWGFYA
Method: as §1
2) Cloning and Construction of the Vector Expressing Human SGLT2
as §2, with “human kidney” for “human small intestine”, “coding 2” for “coding 1”, “to 2039” for “to 2005”, “human SGLT2” for “human SGLT1”, “(ACCESSION: M95549, M95299),” for “(ACCESSION: M24847),”, “by R. G. Wells” for “by Hediger”
as §3, §4

pIC50 (human SGLT1)	pIC50 (human SGLT2)	SMILES
7.08	–	COc1ccc(Cn2cc([C@@H]3O[C@H](CO)[C@@H](O)[C@H](O)[C@H]3O)c3cccc(C)c32)cc1 [Example 6]
–	8.22	COc1ccc(Cn2cc([C@@H]3O[C@H](CO)[C@@H](O)[C@H](O)[C@H]3O)c3cc(C)ccc32)cc1 [Example 8]
